Experimental findings from BindingDB's records for patent US20250250264 (Wuhan Humanwell Innovative Drug Research And Development …, 2025) are described below.

This test addresses T1, Kinesin-like protein KIF18A [1-467] (Human, UniProt Q8NI77).
T1 construct: 1-467
T1 sequence (Q8NI77 whole entry): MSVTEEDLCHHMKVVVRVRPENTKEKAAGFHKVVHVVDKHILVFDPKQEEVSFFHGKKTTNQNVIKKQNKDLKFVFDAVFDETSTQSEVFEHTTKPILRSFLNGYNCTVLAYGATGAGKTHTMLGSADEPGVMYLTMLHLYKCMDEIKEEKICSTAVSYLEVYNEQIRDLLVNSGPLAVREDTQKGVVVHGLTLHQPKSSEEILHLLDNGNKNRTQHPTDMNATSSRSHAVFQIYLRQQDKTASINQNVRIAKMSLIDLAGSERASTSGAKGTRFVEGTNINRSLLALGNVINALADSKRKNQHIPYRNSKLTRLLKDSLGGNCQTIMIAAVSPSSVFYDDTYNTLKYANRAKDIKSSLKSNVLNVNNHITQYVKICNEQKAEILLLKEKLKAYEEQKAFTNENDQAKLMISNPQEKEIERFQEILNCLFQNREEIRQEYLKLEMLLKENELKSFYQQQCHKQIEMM
Nature of the test: Assay on Inhibition of KIF18A Enzymatic Activity. As to the method: The reaction system consisted of a test compound, the recombinant protein KIF18A (aa 1-467), ATP (Promega Inc), and an assay buffer. The test compound was prepared into a 0.5 mM stock solution using DMSO (Sigma Inc) and then serially diluted in DMSO. The assay buffer consisted of an aqueous solution of 15 mM Tris, 10 mM MgCl2 (Sigma Inc), 0.01% Pluronic F-68 (Life Technologies Inc), 1 μM paclitaxel (Cytoskeleton Inc), 30 μg/mL porcine tubulin (Cytoskeleton Inc), and 2% DMSO. The KIF18A protein (final concentration: 80 nM) and the compound at different concentrations (1 μL) were added to the prepared assay buffer (50 μL), and the mixture was incubated at room temperature for 15 min. Then, ATP (final concentration: 80 μM) was added to the reaction mixture, and the resulting mixture was incubated at room temperature for 3 h. After the reaction was completed, 5 μL of the ADP-Glo™ reagent and 2.5 μL of the reaction mixture were added to a 384-well plate (Grenier Inc). The resulting mixture was mixed homogeneously, then sealed by an aluminum foil sealing film, and incubated at room temperature in the dark for 40 min. […] After all reactions were completed, the luminescence values of the wells were read on a microplate reader (Molecular Device_SpectraMax Id5), and the inhibition ratios were calculated.

As for `Cc1cc(-c2nnc(-c3ccc(NS(=O)(=O)CCO)cc3N3CCC4(CC3)CC4)s2)nc(OCCC(F)(F)F)n1` [US20250250264, Compound I-99], it took 3 nM to reach half-maximal inhibition (IC50). In other words, the single-digit nanomolar range. Take `Cc1cc(-c2nnc(-c3ccc(NS(=O)(=O)CCO)cc3N3CCC4(CC3)CC4)o2)c(F)c(N2CCC(F)(F)CC2)n1` [US20250250264, Compound I-53]: the IC50 turned out to be 25 nM.

One may read the IC50 as the point on the concentration scale where inhibition reaches its midpoint. High values mean weaker potency, low ones greater potency.
